This assay has as its target T1, Recombinant human EP300 containing the bromodomain (EP300-BD (1040-1161)) (Homo sapiens, UniProt Q09472).
T1 construct: Recombinant human EP300 bromodomain (EP300-BD (1040-1161)); made in house; host or cells: E. coli BL21-CodonPlus (DE3), modified pET vector
T1 sequence (Q09472 1040-1161): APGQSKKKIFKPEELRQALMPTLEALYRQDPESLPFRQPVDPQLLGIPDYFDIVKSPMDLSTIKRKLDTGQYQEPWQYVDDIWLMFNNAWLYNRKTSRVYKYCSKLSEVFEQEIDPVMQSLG
In words: EP300 Alphascreen binding assay. The essentials:
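Displacement of a biotinylated acetyl-K56 histone H3 peptide from the N-His bromodomain construct (1040-1161) measured by AlphaScreen proximity, beads at 7.5 μg/ml final, read 60 min after addition. Protein, peptide and compound first incubated 1 h at room temperature, pH 7.5 HEPES buffer; IC50 by four-parameter logistic fit.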
A general note: Bead proximity is the source of the signal in Alpha formats.

This is an account of results in patent US11446287B2, “Compounds and methods for EP300 or CBP modulation and indications therefor” (Opna Immuno-Oncology SA, priority 2019, dated 2022).

The IC50 is the concentration that gives 50% inhibition. In the case of `Cc1noc(C)c1-c1cnc2c(c1)c(-c1ccc(C(=O)O)cc1OC(C)C)c(C)n2C(C1CC1)C1CC1` [P-0342, 4-(1-(dicyclopropylmethyl)-5-(3,5-dimethylisoxazol-4-yl)-2-methyl-1H-pyrrolo[2,3-b]pyridin-3-yl)-3-isopropoxybenzoic acid], the IC50 was in the range of 0.0001 to 1 µM. As for `Cc1noc(C)c1-c1cnc2c(c1)c(-c1ccc(C(=O)O)cc1OC(F)(F)F)c(C)n2C(C1CC1)C1CC1` [P-0343, 4-(1-(dicyclopropylmethyl)-5-(3,5-dimethylisoxazol-4-yl)-2-methyl-1H-pyrrolo[2,3-b]pyridin-3-yl)-3-(trifluoromethoxy)benzoic acid], the figure is 0.0001 to 1 µM.

Consider `Cc1noc(C)c1-c1ccc2c(c1)c(-c1ccc(C(=O)O)cc1OC(F)(F)F)cn2C(C1CC1)C1CC1` [P-0344, 4-(1-(dicyclopropylmethyl)-5-(3,5-dimethylisoxazol-4-yl)-1H-indol-3-yl)-3-(trifluoromethoxy)benzoic acid], for which the IC50 lay within 0.0001 to 1 µM. With `Cc1noc(C)c1-c1cnc2c(c1)c(-c1ccc(C(=O)O)cc1OC(F)(F)F)c(C)n2-c1ncccc1C#N` [P-0345, 4-(1-(3-cyanopyridin-2-yl)-5-(3,5-dimethylisoxazol-4-yl)-2-methyl-1H-pyrrolo[2,3-b]pyridin-3-yl)-3-(trifluoromethoxy)benzoic acid], the IC50 is 0.0001 to 1 µM. As for `Cc1noc(C)c1-c1cnc2c(c1)c(-c1c(Cl)cc(C(=O)O)cc1OC(F)(F)F)cn2[C@H]1CCOC1` [P-0346, (S)-3-chloro-4-(5-(3,5-dimethylisoxazol-4-yl)-1-(tetrahydrofuran-3-yl)-1H-pyrrolo[2,3-b]pyridin-3-yl)-5-(trifluoromethoxy)benzoic acid], the figure is 0.0001 to 1 µM; as for `Cc1noc(C)c1-c1cnc2c(c1)c(-c1ccc(C(=O)O)cc1OC1CCC1)cn2-c1cnc(N2CCC2)nc1` [P-0347, 4-(1-(2-(azetidin-1-yl)pyrimidin-5-yl)-5-(3,5-dimethylisoxazol-4-yl)-1H-pyrrolo[2,3-b]pyridin-3-yl)-3-cyclobutoxybenzoic acid], 0.0001 to 1 µM; as for `Cc1noc(C)c1-c1cnc2c(c1)c(-c1c(F)cc(C(=O)O)cc1OCC(F)F)cn2-c1cnc(N2CCC2)nc1` [P-0348, 4-(1-(2-(azetidin-1-yl)pyrimidin-5-yl)-5-(3,5-dimethylisoxazol-4-yl)-1H-pyrrolo[2,3-b]pyridin-3-yl)-3-(2,2-difluoroethoxy)-5-fluorobenzoic acid], 0.0001 to 1 µM.

For the molecule `Cc1nn(C(F)F)cc1-n1cc(-c2ccc(C(=O)O)cc2OCC(F)F)c2cc(-c3c(C)noc3C)cnc21` [P-0349, 3-(2,2-difluoroethoxy)-4-(1-(1-(difluoromethyl)-3-methyl-1H-pyrazol-4-yl)-5-(3,5-dimethylisoxazol-4-yl)-1H-pyrrolo[2,3-b]pyridin-3-yl)benzoic acid], the 50% inhibitory concentration (IC50) fell in the range of 0.0001 to 1 µM. The figure for `Cc1noc(C)c1-c1cnc2c(c1)c(-c1ccc(C(=O)O)cc1OC1CCC1)cn2[C@H]1CCOC1` [P-0350, (S)-3-cyclobutoxy-4-(5-(3,5-dimethylisoxazol-4-yl)-1-(tetrahydrofuran-3-yl)-1H-pyrrolo[2,3-b]pyridin-3-yl)benzoic acid] is 0.0001 to 1 µM; for `Cc1nn(C(F)F)cc1-n1cc(-c2ccc(C(=O)O)cc2OC2CCC2)c2cc(-c3c(C)noc3C)cnc21` [P-0351, 3-cyclobutoxy-4-(1-(1-(difluoromethyl)-3-methyl-1H-pyrazol-4-yl)-5-(3,5-dimethylisoxazol-4-yl)-1H-pyrrolo[2,3-b]pyridin-3-yl)benzoic acid] it is 0.0001 to 1 µM; for `Cc1noc(C)c1-c1cnc2c(c1)c(-c1c(Cl)cc(C(=O)O)cc1OCC(F)F)cn2-c1cnn(C(F)F)c1C` [P-0352, 3-chloro-5-(2,2-difluoroethoxy)-4-(1-(1-(difluoromethyl)-5-methyl-1H-pyrazol-4-yl)-5-(3,5-dimethylisoxazol-4-yl)-1H-pyrrolo[2,3-b]pyridin-3-yl)benzoic acid] it is 0.0001 to 1 µM. For the molecule `Cc1noc(C)c1-c1cnc2c(c1)c(-c1ccc(C(=O)O)cc1OC1CCC1)cn2-c1cnn(C(F)F)c1C` [P-0353, 3-cyclobutoxy-4-(1-(1-(difluoromethyl)-5-methyl-1H-pyrazol-4-yl)-5-(3,5-dimethylisoxazol-4-yl)-1H-pyrrolo[2,3-b]pyridin-3-yl)benzoic acid], the 50% inhibitory concentration (IC50) was 0.0001 to 1 µM. For `Cc1noc(C)c1-c1cnc2c(c1)c(-c1ccc(C(=O)O)cc1OC(C)C)cn2-c1cnn(C(F)F)c1C` [P-0354, 4-(1-(1-(difluoromethyl)-5-methyl-1H-pyrazol-4-yl)-5-(3,5-dimethylisoxazol-4-yl)-1H-pyrrolo[2,3-b]pyridin-3-yl)-3-isopropoxybenzoic acid], the IC50 was in the range of 0.0001 to 1 µM. As to `Cc1noc(C)c1-c1cnc2c(c1)c(-c1c(Cl)cc(C(=O)O)cc1OC(F)(F)F)cn2C1CCOCC1` [P-0355, 3-chloro-4-(5-(3,5-dimethylisoxazol-4-yl)-1-(tetrahydro-2H-pyran-4-yl)-1H-pyrrolo[2,3-b]pyridin-3-yl)-5-(trifluoromethoxy)benzoic acid], the IC50 lay within 0.0001 to 1 µM. On to `Cc1noc(C)c1-c1cnc2c(c1)c(-c1c(Cl)cc(C(=O)O)cc1OC1CCC1)cn2C(C1CC1)C1CC1` [P-0356, 3-chloro-5-cyclobutoxy-4-(1-(dicyclopropylmethyl)-5-(3,5-dimethylisoxazol-4-yl)-1H-pyrrolo[2,3-b]pyridin-3-yl)benzoic acid], for which the IC50 is 0.0001 to 1 µM. For the molecule `Cc1noc(C)c1-c1cnc2c(c1)c(-c1ccc(C(=O)O)cc1OC(C)C)cn2C1CCOCC1` [P-0357, 4-(5-(3,5-dimethylisoxazol-4-yl)-1-(tetrahydro-2H-pyran-4-yl)-1H-pyrrolo[2,3-b]pyridin-3-yl)-3-isopropoxybenzoic acid], the IC50 lay in the range of 0.0001 to 1 µM. The figure for `Cc1noc(C)c1-c1cnc2c(c1)c(-c1c(Cl)cc(C(=O)O)cc1OC1CCC1)cn2C1CCOCC1` [P-0358, 3-chloro-5-cyclobutoxy-4-(5-(3,5-dimethylisoxazol-4-yl)-1-(tetrahydro-2H-pyran-4-yl)-1H-pyrrolo[2,3-b]pyridin-3-yl)benzoic acid] is 0.0001 to 1 µM. For the molecule `Cc1noc(C)c1-c1cnc2c(c1)c(-c1c(Cl)cc(C(=O)O)cc1OCC(F)F)cn2C1CCOCC1` [P-0359, 3-chloro-5-(2,2-difluoroethoxy)-4-(5-(3,5-dimethylisoxazol-4-yl)-1-(tetrahydro-2H-pyran-4-yl)-1H-pyrrolo[2,3-b]pyridin-3-yl)benzoic acid], the concentration for half-maximal inhibition (IC50) was 0.0001 to 1 µM. The figure for `CCOc1cc(C(=O)O)c(F)cc1-c1cn([C@H]2CCOC2)c2ncc(-c3c(C)noc3C)cc12` [P-0360, (S)-4-(5-(3,5-dimethylisoxazol-4-yl)-1-(tetrahydrofuran-3-yl)-1H-pyrrolo[2,3-b]pyridin-3-yl)-5-ethoxy-2-fluorobenzoic acid] is 0.0001 to 1 µM; for `Cc1noc(C)c1-c1cnc2c(c1)c(-c1c(Cl)cc(C(=O)O)cc1OC1CCC1)cn2[C@H]1CCOC1` [P-0361, (S)-3-chloro-5-cyclobutoxy-4-(5-(3,5-dimethylisoxazol-4-yl)-1-(tetrahydrofuran-3-yl)-1H-pyrrolo[2,3-b]pyridin-3-yl)benzoic acid] it is 0.0001 to 1 µM; for `COc1cc(C(=O)O)ncc1-c1cn(C2CCOCC2)c2ncc(-c3c(C)noc3C)cc12` [P-0362, 5-(5-(3,5-dimethylisoxazol-4-yl)-1-(tetrahydro-2H-pyran-4-yl)-1H-pyrrolo[2,3-b]pyridin-3-yl)-4-methoxypicolinic acid] it is 0.0001 to 1 µM. As for `Cc1noc(C)c1-c1cnc2c(c1)c(-c1c(Cl)cc(C(=O)O)cc1OC1CC1)cn2C(C1CC1)C1CC1` [P-0363, 3-chloro-5-cyclopropoxy-4-(1-(dicyclopropylmethyl)-5-(3,5-dimethylisoxazol-4-yl)-1H-pyrrolo[2,3-b]pyridin-3-yl)benzoic acid], the figure is 0.0001 to 1 µM; as for `Cc1noc(C)c1-c1cnc2c(c1)c(-c1ccc(C(=O)O)cc1OC(F)(F)F)cn2CC1(C#N)CCC1` [P-0364, 4-(1-((1-cyanocyclobutyl)methyl)-5-(3,5-dimethylisoxazol-4-yl)-1H-pyrrolo[2,3-b]pyridin-3-yl)-3-(trifluoromethoxy)benzoic acid], 0.0001 to 1 µM.

In the case of `Cc1nn(CC(C)(C)O)cc1-n1cc(-c2ccc(C(=O)O)cc2OC(F)(F)F)c2cc(-c3c(C)noc3C)cnc21` [P-0365, 4-(5-(3,5-dimethylisoxazol-4-yl)-1-(1-(2-hydroxy-2-methylpropyl)-3-methyl-1H-pyrazol-4-yl)-1H-pyrrolo[2,3-b]pyridin-3-yl)-3-(trifluoromethoxy)benzoic acid], the IC50 lay within 0.0001 to 1 µM. As for `Cc1nn(CC(=O)N(C)C)cc1-n1cc(-c2ccc(C(=O)O)cc2OC(F)(F)F)c2cc(-c3c(C)noc3C)cnc21` [P-0366, 4-(1-(1-(2-(dimethylamino)-2-oxoethyl)-3-methyl-1H-pyrazol-4-yl)-5-(3,5-dimethylisoxazol-4-yl)-1H-pyrrolo[2,3-b]pyridin-3-yl)-3-(trifluoromethoxy)benzoic acid], the figure is 0.0001 to 1 µM. Turning to `Cc1cc(C(=O)O)cc(OCC(F)F)c1-c1cn(C2CCOCC2)c2ncc(-c3c(C)noc3C)cc12` [P-0367, 3-(2,2-difluoroethoxy)-4-(5-(3,5-dimethylisoxazol-4-yl)-1-(tetrahydro-2H-pyran-4-yl)-1H-pyrrolo[2,3-b]pyridin-3-yl)-5-methylbenzoic acid], the IC50 was 0.0001 to 1 µM. As for `COc1nc(C(=O)O)ccc1-c1cn(C2CCOCC2)c2ncc(-c3c(C)noc3C)cc12` [P-0368, 5-(5-(3,5-dimethylisoxazol-4-yl)-1-(tetrahydro-2H-pyran-4-yl)-1H-pyrrolo[2,3-b]pyridin-3-yl)-6-methoxypicolinic acid], the figure is 0.0001 to 1 µM.
